# From PubChem BioAssay (NCI)
#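 The concentration for 50% growth inhibition is given as GI50. At the TGI there is no net growth.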
# What was measured:
# Assay in all cases: DTP human tumour cell line panel, 384-well format
# [1] = test system: 786-0 renal
# [2] = test system: A498 renal
# [3] = test system: A549 NSCLC
# [4] = test system: ACHN renal
# [5] = test system: BT-549 breast
# [6] = test system: CAKI-1 renal
# [7] = test system: CCRF-CEM leukemia
# [8] = test system: COLO 205 colon
# [9] = test system: DU-145 prostate
# [10] = test system: EKVX NSCLC
# [11] = test system: HCC-2998 colon
# [12] = test system: HCT-116 colon
# [13] = test system: HCT-15 colon
# [14] = test system: HL-60(TB) leukemia
# [15] = test system: HOP-62 NSCLC
# [16] = test system: HOP-92 NSCLC
# [17] = test system: HS 578T breast
# [18] = test system: HT29 colon
# [19] = test system: IGROV1 ovarian
# [20] = test system: K-562 leukemia
# [21] = test system: KM12 colon
# [22] = test system: LOX IMVI melanoma
# [23] = test system: M14 melanoma
# [24] = test system: MALME-3M melanoma
# [25] = test system: MCF7 breast
# [26] = test system: MDA-MB-231 breast
# [27] = test system: MDA-MB-435 melanoma
# [28] = test system: MDA-MB-468 breast
# [29] = test system: MOLT-4 leukemia
# [30] = test system: NCI-H226 lung
# [31] = test system: NCI-H23 lung
# [32] = test system: NCI-H322M lung
# [33] = test system: NCI-H460 NSCLC
# [34] = test system: NCI-H522 lung
# [35] = test system: NCI/ADR-RES ovarian
# [36] = test system: OVCAR-3 ovarian
# [37] = test system: OVCAR-4 ovarian
# [38] = test system: OVCAR-8 ovarian
# [39] = test system: PC-3 prostate
# [40] = test system: RPMI-8226 leukemia
# [41] = test system: RXF 393 renal
# [42] = test system: SF-268 CNS
# [43] = test system: SF-295 CNS
# [44] = test system: SF-539 CNS
# [45] = test system: SK-MEL-28 melanoma
# [46] = test system: SK-MEL-5 melanoma
# [47] = test system: SK-OV-3 ovarian
# [48] = test system: SN12C renal
# [49] = test system: SNB-19 CNS
# [50] = test system: SNB-75 CNS
# [51] = test system: SR leukemia
# [52] = test system: SW-620 colon
# [53] = test system: T-47D breast
# [54] = test system: TK-10 renal
# [55] = test system: U251 glioblastoma
# [56] = test system: UACC-257 melanoma
# [57] = test system: UACC-62 melanoma
# [58] = test system: UO-31 renal
# [59] = test system: OVCAR-5 ovarian
# [60] = test system: SK-MEL-2 melanoma
structure (smiles),measurement,setting,value
Cc1cc(O)c(-c2ccc([C@@H](C)CN(C)C)cc2)c2c1[nH]c(=O)c1sccc12,GI50,[1],50 nM
same,TGI,[1],193 nM
same,GI50,[2],160 nM
same,TGI,[2],319 nM
same,GI50,[3],225 nM
same,TGI,[3],482 nM
same,GI50,[4],357 nM
same,TGI,[4],1240 nM
same,GI50,[5],192 nM
same,TGI,[5],451 nM
same,GI50,[6],292 nM
same,TGI,[6],996 nM
same,GI50,[7],199 nM
same,TGI,[7],399 nM
same,GI50,[8],1990 nM
same,TGI,[8],4050 nM
same,GI50,[9],279 nM
same,TGI,[9],706 nM
same,GI50,[10],451 nM
same,TGI,[10],1500 nM
same,GI50,[11],197 nM
same,TGI,[11],467 nM
same,GI50,[12],200 nM
same,TGI,[12],383 nM
same,GI50,[13],378 nM
same,TGI,[13],1390 nM
same,GI50,[14],19.7 nM
same,TGI,[14],37.5 nM
same,GI50,[15],206 nM
same,TGI,[15],401 nM
same,GI50,[16],357 nM
same,TGI,[16],2120 nM
same,GI50,[17],129 nM
same,TGI,[17],289 nM
same,GI50,[18],1780 nM
same,TGI,[18],3270 nM
same,GI50,[19],362 nM
same,TGI,[19],1270 nM
same,GI50,[20],295 nM
same,TGI,[20],746 nM
same,GI50,[21],286 nM
same,TGI,[21],850 nM
same,GI50,[22],253 nM
same,TGI,[22],580 nM
same,GI50,[23],413 nM
same,TGI,[23],1250 nM
same,GI50,[24],1000 nM
same,TGI,[24],2190 nM
same,GI50,[25],63.6 nM
same,TGI,[25],217 nM
same,GI50,[26],265 nM
same,TGI,[26],682 nM
same,GI50,[27],444 nM
same,TGI,[27],1430 nM
same,GI50,[28],27.8 nM
same,TGI,[28],67.1 nM
same,GI50,[29],156 nM
same,TGI,[29],295 nM
same,GI50,[30],285 nM
same,TGI,[30],662 nM
same,GI50,[31],212 nM
same,TGI,[31],446 nM
same,GI50,[32],411 nM
same,TGI,[32],1210 nM
same,GI50,[33],186 nM
same,TGI,[33],341 nM
same,GI50,[34],180 nM
same,TGI,[34],350 nM
same,GI50,[35],2060 nM
same,TGI,[35],4650 nM
same,GI50,[36],189 nM
same,TGI,[36],381 nM
same,GI50,[37],199 nM
same,TGI,[37],400 nM
same,GI50,[38],223 nM
same,TGI,[38],447 nM
same,GI50,[39],286 nM
same,TGI,[39],757 nM
same,GI50,[40],36.8 nM
same,TGI,[40],108 nM
same,GI50,[41],14.6 nM
same,TGI,[41],31.7 nM
same,GI50,[42],338 nM
same,TGI,[42],1420 nM
same,GI50,[43],1810 nM
same,TGI,[43],3680 nM
same,GI50,[44],133 nM
same,TGI,[44],369 nM
same,GI50,[45],284 nM
same,TGI,[45],1610 nM
same,GI50,[46],233 nM
same,TGI,[46],547 nM
same,GI50,[47],171 nM
same,TGI,[47],410 nM
same,GI50,[48],224 nM
same,TGI,[48],571 nM
same,GI50,[49],335 nM
same,TGI,[49],1110 nM
same,GI50,[50],159 nM
same,TGI,[50],753 nM
same,GI50,[51],75.7 nM
same,TGI,[51],179 nM
same,GI50,[52],443 nM
same,TGI,[52],1260 nM
same,GI50,[53],1200 nM
same,TGI,[53],5800 nM
same,GI50,[54],265 nM
same,TGI,[54],713 nM
same,GI50,[55],173 nM
same,TGI,[55],1100 nM
same,GI50,[56],831 nM
same,TGI,[56],2090 nM
same,GI50,[57],283 nM
same,TGI,[57],888 nM
same,GI50,[58],266 nM
same,TGI,[58],663 nM
O=c1[nH]c(=O)n(C2CC(O)C(CO)O2)cc1C(F)(F)F (stereo unspecified),GI50,[1],2940 nM
same,TGI,[1],77600 nM
same,GI50,[2],7940 nM
same,TGI,[2],> 100000 nM
same,GI50,[3],2430 nM
same,TGI,[3],> 100000 nM
same,GI50,[4],519 nM
same,TGI,[4],2950 nM
same,GI50,[5],763 nM
same,TGI,[5],9010 nM
same,GI50,[6],4130 nM
same,TGI,[6],> 100000 nM
same,GI50,[7],234 nM
same,TGI,[7],469 nM
same,GI50,[9],530 nM
same,TGI,[9],8600 nM
same,GI50,[10],> 100000 nM
same,TGI,[10],> 100000 nM
same,GI50,[12],698 nM
same,TGI,[12],> 100000 nM
same,GI50,[13],4180 nM
same,TGI,[13],> 100000 nM
same,GI50,[14],171 nM
same,TGI,[14],394 nM
same,GI50,[15],2270 nM
same,TGI,[15],11000 nM
same,GI50,[16],50800 nM
same,TGI,[16],> 100000 nM
same,GI50,[17],25400 nM
same,TGI,[17],> 100000 nM
same,GI50,[18],13400 nM
same,TGI,[18],> 100000 nM
same,GI50,[19],13000 nM
same,TGI,[19],> 100000 nM
same,GI50,[20],705 nM
same,TGI,[20],> 100000 nM
same,GI50,[21],7510 nM
same,TGI,[21],> 100000 nM
same,GI50,[22],813 nM
same,TGI,[22],9830 nM
same,GI50,[23],2420 nM
same,TGI,[23],16100 nM
same,GI50,[24],1380 nM
same,TGI,[24],> 100000 nM
same,GI50,[25],212 nM
same,TGI,[25],> 100000 nM
same,GI50,[26],23600 nM
same,TGI,[26],> 100000 nM
same,GI50,[27],8930 nM
same,TGI,[27],> 100000 nM
same,GI50,[28],2610 nM
same,TGI,[28],19500 nM
same,GI50,[29],197 nM
same,TGI,[29],459 nM
same,GI50,[30],15300 nM
same,TGI,[30],61200 nM
same,GI50,[31],2060 nM
same,TGI,[31],11300 nM
same,GI50,[32],66000 nM
same,TGI,[32],> 100000 nM
same,GI50,[34],21800 nM
same,TGI,[34],> 100000 nM
same,GI50,[35],3880 nM
same,TGI,[35],36500 nM
same,GI50,[36],5960 nM
same,TGI,[36],> 100000 nM
same,GI50,[37],88500 nM
same,TGI,[37],> 100000 nM
same,GI50,[59],12000 nM
same,TGI,[59],> 100000 nM
same,GI50,[38],4720 nM
same,TGI,[38],30200 nM
same,GI50,[39],80100 nM
same,TGI,[39],> 100000 nM
same,GI50,[40],199 nM
same,TGI,[40],11500 nM
same,GI50,[41],2480 nM
same,TGI,[41],87200 nM
same,GI50,[42],2210 nM
same,TGI,[42],14300 nM
same,GI50,[43],3210 nM
same,TGI,[43],12300 nM
same,GI50,[44],4810 nM
same,TGI,[44],20400 nM
same,GI50,[60],> 100000 nM
same,TGI,[60],> 100000 nM
same,GI50,[45],6780 nM
same,TGI,[45],> 100000 nM
same,GI50,[47],7070 nM
same,TGI,[47],> 100000 nM
same,GI50,[48],1900 nM
same,TGI,[48],9000 nM
same,GI50,[49],3450 nM
same,TGI,[49],> 100000 nM
same,GI50,[50],15900 nM
same,TGI,[50],> 100000 nM
same,GI50,[52],1240 nM
same,TGI,[52],> 100000 nM
same,GI50,[53],7650 nM
same,TGI,[53],> 100000 nM
same,GI50,[54],14600 nM
same,TGI,[54],> 100000 nM
same,GI50,[55],4870 nM
same,TGI,[55],79700 nM
same,GI50,[56],12800 nM
same,TGI,[56],> 100000 nM
same,GI50,[57],3250 nM
same,TGI,[57],23000 nM
same,GI50,[58],2550 nM
same,TGI,[58],14200 nM
